Experimental data as given in paper PMC6193938, “Characterization of a novel AICARFT inhibitor which potently elevates ZMP and has anti-tumor activity in murine models” (Scientific Reports, 2018).
Like-named read-outs stand apart in the source and are kept apart here.

Assays:
FLT1 = target: T1, FLT1 (Homo sapiens, UniProt P17948); test: CEREP protein kinase assay; format: biochemical
T1 construct: purchased CEREP Panlabs (Eurofins)

[1] = mouse, in vivo
WEE1 = target: T2, WEE1 (Homo sapiens, UniProt P30291); test: CEREP protein kinase assay; format: biochemical
T2 construct: purchased CEREP Panlabs (Eurofins)

ALK = target: T3, ALK (Homo sapiens, UniProt Q9UM73); test: CEREP protein kinase assay; format: biochemical
T3 construct: purchased CEREP Panlabs (Eurofins)

IRAK4 = target: T4, IRAK4 (Homo sapiens, UniProt Q9NWZ3); test: CEREP protein kinase assay; format: biochemical
T4 construct: purchased CEREP Panlabs (Eurofins)
T4 sequence (Q9NWZ3 1-460): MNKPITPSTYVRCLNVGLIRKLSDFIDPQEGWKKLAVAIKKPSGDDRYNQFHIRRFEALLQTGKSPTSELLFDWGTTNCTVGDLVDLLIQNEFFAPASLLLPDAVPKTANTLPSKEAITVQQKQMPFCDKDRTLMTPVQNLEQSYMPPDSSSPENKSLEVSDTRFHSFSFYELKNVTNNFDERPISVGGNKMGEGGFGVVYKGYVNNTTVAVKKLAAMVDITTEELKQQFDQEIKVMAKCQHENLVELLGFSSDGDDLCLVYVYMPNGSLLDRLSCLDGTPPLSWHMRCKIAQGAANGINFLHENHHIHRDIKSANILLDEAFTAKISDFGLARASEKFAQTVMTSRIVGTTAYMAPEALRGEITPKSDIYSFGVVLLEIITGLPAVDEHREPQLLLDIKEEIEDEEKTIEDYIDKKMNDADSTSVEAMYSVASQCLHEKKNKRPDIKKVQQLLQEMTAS

NCI-H460 xenografts = test: Pharmacodynamic response of tumor metabolites, single PO dose, low folate chow; format: in vivo, mouse
From the text: Figure 4 Pharmacodynamic response of ZMP (purple), AICAR (blue), […] (green), dUMP (red), AMP (aqua) & GMP (orange) metabolites in tumors following a single PO dose of LSN3213128 in athymic nude mice.

A101D (melenoma) = test: MS detection of ZMP in cultured cells; format: cell-based; settings: Homo sapiens, low folate RPMI media, 16 hours
Procedure: (§1) Cells lines were acquired from cell banks, see supplemental material, grown using the cell banks recommended culture conditions (Supplemental Table 3). In some experiments noted “low folate” the cells were washed and grown in folate free RPMI-1640 media (Gibco #27016-021) supplemented with 5 ml 1 M Hepes, 5 ml 100 mM Na pyruvate, 2.5 mg/ml glucose and 10% defined FBS (Hyclone #SH30070) per 500 mL media for 5–7 days to deplete intracellular folate levels prior to the start of the experiment. Where noted, cells were maintained in complete “high folate” RPMI-1640 media (ATCC #30-2001) with 10% defined FBS to contrast with the low folate conditions.
(§2) ZMP was detected in cultured cells via mass spec analysis. Cells were plated in 96-well plates at 25,000 cells per well in 100 µL with either high or low folate RPMI media and incubated overnight at 37 °C with 5% CO2. Cells were treated with inhibitor compounds for 16 hours, 0.5% DMSO final concentration. Growth media was decanted and cells were lysed for 10 min at room temperature with 50 µL per well of 1x Sure Fire Lysis buffer (Perkin Elmer, SureFire kit component). Aliquots (40 µL) of standard or sample were combined in a deep 96-well plate with 160 µL of internal standard solution containing ^13C5-ZMP (custom synthesis) and ^13C5-AICAr (custom synthesis) at 100 ng/mL in 40 mM ammonium acetate, pH 4. 400 µL of dichloromethane was added to each sample. Samples were sealed, vortexed for 5 minutes, and placed in the refrigerator for at least 30 minutes. The samples were centrifuged at 4 °C for 10 minutes at 16,600 g. 75 µL of the aqueous layer were transferred to a clean 96-well plate and seal prior to analysis.
(§3) The LC-MS method utilizes a Shimadzu Prominence 20 A HPLC system connected to an AB Sciex 5500™ or an AB Sciex 6500™ triple quadrupole mass spectrometer. Extracted samples were separated using a Thermo Hypercarb™ Javelin guard column (2.1 × 20 mm, 5 µm) with an injection volume of 15 µL and a flow rate of 1 mL/minute.
(§4) ZMP, AICAr and dUMP were detected using positive ion TurboIonSpray® multiple reaction monitoring mode and the data were processed with AB Sciex MultiQuant™. Back-calculated ZMP concentrations were fit to a four-parameter logistic equation using ACTIVITYBASE 4.0 to determine EC50 values relative to the maximum observed metabolite levels.

MIA PaCa-2 (pancreas) = test: MS detection of ZMP in cultured cells; format: cell-based; settings: Homo sapiens, 16 hours
Procedure: as §1, §2, §3, §4

NCI-H1299 = test: MS detection of ZMP in cultured cells; format: cell-based; settings: Homo sapiens, low folate RPMI media, 16 hours
Procedure: as §1, §2, §3, §4

SW620 (colon) = test: MS detection of ZMP in cultured cells; format: cell-based; settings: Homo sapiens, 16 hours
Procedure: as §1, §2, §3, §4

NCI-H1155 (lung) = test: MS detection of ZMP in cultured cells; format: cell-based; settings: Homo sapiens, 16 hours
Procedure: as §1, §2, §3, §4

HCT 116 (colon) = test: MS detection of ZMP in cultured cells; format: cell-based; settings: Homo sapiens, 16 hours
Procedure: as §1, §2, §3, §4

NCI-H1437 (lung) = test: MS detection of ZMP in cultured cells; format: cell-based; settings: Homo sapiens, 16 hours
Procedure: as §1, §2, §3, §4

SNU-16 (gastric) = test: MS detection of ZMP in cultured cells; format: cell-based; settings: Homo sapiens, 16 hours
Procedure: as §1, §2, §3, §4

A549 (lung) = test: MS detection of ZMP in cultured cells; format: cell-based; settings: Homo sapiens, 16 hours
Procedure: as §1, §2, §3, §4

NCI-H1993 (lung) = test: MS detection of ZMP in cultured cells; format: cell-based; settings: Homo sapiens, low folate RPMI media, 16 hours
Procedure: as §1, §2, §3, §4

FAK = target: T5, FAK (Homo sapiens, UniProt Q05397); test: CEREP protein kinase assay; format: biochemical
T5 construct: purchased CEREP Panlabs (Eurofins)

[2] = RPMI media, read-out: ZMP EC50 Regular folate
[3] = low folate RPMI media, read-out: ZMP EC50 Low folate

T5 sequence (Q05397 whole entry): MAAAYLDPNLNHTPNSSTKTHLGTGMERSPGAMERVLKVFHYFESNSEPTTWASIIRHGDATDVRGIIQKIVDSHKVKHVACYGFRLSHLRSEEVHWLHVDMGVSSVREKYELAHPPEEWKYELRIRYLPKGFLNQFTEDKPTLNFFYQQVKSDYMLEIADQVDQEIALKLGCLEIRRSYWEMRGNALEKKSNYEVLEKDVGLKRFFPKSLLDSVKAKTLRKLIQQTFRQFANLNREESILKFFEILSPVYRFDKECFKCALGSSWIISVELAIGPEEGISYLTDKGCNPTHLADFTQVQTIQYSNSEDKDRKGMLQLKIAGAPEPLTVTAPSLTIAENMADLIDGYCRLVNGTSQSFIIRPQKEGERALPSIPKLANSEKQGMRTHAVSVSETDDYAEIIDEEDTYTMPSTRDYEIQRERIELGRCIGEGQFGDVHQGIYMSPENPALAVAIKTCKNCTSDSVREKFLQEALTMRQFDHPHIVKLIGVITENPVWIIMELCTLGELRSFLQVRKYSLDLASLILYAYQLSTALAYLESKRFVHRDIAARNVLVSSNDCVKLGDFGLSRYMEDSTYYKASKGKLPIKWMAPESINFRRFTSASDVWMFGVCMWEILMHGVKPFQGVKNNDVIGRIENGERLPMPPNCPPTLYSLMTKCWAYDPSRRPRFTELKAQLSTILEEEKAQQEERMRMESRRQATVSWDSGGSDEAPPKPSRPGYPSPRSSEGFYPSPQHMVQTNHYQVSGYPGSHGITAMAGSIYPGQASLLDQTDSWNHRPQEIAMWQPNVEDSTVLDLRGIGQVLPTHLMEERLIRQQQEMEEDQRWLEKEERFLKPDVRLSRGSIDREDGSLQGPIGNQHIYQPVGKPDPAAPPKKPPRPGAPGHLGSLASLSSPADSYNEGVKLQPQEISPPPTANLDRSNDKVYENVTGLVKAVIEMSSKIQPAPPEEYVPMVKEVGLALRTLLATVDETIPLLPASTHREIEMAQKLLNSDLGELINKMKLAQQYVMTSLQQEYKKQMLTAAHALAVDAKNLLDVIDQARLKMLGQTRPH
T1 sequence (P17948 27-1338): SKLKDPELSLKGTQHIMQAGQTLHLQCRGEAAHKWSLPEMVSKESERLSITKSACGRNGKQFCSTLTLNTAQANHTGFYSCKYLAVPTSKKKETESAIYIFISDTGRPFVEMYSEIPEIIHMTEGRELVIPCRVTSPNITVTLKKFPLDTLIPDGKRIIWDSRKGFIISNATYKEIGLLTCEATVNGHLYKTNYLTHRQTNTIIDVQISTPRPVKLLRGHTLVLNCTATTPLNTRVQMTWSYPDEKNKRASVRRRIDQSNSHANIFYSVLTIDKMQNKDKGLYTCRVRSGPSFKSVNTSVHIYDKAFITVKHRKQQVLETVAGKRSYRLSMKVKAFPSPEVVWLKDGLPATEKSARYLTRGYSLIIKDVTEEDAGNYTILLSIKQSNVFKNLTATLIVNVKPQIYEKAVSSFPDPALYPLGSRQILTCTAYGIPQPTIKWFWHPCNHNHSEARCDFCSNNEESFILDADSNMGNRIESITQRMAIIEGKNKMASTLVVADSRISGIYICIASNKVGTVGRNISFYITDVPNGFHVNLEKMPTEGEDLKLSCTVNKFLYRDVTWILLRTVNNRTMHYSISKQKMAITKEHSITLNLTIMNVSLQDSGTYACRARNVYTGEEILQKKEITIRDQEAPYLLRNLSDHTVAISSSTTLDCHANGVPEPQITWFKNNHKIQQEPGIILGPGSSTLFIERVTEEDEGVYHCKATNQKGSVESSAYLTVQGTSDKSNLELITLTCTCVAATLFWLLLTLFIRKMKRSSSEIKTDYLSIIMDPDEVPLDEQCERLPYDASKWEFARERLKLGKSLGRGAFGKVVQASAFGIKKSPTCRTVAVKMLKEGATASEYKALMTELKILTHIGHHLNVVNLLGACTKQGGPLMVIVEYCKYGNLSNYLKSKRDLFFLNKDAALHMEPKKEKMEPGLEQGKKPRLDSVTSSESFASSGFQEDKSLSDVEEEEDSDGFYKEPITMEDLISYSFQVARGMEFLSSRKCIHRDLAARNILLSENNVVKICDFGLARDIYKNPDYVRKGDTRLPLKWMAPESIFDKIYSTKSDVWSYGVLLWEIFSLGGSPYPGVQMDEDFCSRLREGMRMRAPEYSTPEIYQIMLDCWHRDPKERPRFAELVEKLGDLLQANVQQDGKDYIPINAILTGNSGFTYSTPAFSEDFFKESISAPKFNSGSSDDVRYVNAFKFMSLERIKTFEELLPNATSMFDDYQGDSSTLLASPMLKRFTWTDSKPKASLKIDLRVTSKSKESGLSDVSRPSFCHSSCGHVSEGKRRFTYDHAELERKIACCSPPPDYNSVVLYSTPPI
T2 sequence (P30291 whole entry): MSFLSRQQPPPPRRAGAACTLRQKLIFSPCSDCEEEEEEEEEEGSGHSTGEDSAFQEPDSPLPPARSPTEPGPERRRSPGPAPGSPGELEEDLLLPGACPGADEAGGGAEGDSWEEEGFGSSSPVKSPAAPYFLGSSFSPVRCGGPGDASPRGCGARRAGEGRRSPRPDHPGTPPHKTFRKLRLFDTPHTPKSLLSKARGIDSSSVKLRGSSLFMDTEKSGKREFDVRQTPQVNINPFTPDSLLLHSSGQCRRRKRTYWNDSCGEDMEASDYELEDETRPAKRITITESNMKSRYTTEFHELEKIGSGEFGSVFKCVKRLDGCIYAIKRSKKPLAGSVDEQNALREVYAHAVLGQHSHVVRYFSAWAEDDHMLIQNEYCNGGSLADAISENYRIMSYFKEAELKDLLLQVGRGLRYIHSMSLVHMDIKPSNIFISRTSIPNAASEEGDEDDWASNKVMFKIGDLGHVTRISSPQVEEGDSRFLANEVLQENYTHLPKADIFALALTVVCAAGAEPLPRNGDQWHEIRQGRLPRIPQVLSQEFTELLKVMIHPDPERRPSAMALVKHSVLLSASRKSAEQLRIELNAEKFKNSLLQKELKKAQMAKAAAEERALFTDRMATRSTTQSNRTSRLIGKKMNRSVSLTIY
T3 sequence (Q9UM73 19-1620): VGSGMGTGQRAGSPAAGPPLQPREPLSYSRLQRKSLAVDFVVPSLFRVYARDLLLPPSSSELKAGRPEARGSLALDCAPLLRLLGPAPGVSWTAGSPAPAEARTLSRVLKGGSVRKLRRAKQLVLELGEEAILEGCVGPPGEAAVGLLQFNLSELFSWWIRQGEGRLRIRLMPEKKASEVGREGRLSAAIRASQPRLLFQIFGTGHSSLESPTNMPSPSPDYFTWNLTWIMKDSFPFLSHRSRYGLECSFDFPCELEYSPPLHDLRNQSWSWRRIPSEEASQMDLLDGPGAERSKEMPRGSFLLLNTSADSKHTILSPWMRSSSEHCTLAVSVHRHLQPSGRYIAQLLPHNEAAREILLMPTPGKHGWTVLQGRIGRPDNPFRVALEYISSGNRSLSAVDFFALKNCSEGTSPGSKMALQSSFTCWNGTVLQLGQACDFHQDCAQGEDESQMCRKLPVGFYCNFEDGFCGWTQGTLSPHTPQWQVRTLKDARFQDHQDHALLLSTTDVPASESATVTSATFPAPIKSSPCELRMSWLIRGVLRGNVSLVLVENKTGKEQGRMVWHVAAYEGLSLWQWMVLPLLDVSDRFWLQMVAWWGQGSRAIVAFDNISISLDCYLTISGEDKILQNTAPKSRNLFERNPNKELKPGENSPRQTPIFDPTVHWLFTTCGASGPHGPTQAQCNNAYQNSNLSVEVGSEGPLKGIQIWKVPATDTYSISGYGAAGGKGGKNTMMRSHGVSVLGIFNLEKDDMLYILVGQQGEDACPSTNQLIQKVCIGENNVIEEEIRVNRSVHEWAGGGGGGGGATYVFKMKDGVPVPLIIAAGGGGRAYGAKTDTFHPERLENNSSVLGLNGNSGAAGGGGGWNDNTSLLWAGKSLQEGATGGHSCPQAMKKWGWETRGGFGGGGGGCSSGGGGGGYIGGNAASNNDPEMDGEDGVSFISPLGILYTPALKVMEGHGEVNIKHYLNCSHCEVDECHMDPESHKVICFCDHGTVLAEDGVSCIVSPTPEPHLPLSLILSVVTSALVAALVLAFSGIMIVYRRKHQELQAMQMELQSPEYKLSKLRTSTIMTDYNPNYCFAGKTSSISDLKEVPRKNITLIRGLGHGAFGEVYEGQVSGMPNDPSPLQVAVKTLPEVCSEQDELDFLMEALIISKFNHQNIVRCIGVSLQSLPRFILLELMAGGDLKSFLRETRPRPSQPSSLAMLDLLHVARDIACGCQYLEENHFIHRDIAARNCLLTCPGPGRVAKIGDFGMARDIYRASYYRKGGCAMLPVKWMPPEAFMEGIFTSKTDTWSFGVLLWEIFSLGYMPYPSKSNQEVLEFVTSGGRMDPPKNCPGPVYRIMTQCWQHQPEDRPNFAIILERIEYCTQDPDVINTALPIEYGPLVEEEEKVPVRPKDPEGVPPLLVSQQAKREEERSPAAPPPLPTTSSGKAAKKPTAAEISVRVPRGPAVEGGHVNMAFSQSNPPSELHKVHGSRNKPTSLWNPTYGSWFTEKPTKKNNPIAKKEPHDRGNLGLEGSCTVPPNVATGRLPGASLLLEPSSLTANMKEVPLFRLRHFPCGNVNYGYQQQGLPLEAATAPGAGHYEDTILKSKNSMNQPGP

SMILES: O=c1[nH]ccc2cc(F)c(NS(=O)(=O)c3ccc(N4CC[C@@H](O)C4)s3)cc12 [LSN3213128, N-(6-Fluoro-1-oxo-1,2-dihydroisoquinolin-7-yl)-5-[(3R)-3-hydroxypyrrolidin-1-yl]thiophene-2-sulfonamide]
- inhibition at 0.2 µM (FLT1; @ 0.2 uM): -9.26%
- inhibition at 2 µM (FLT1; @ 2 uM): 4.29%
- inhibition at 20 µM (FLT1; @ 20 uM): 33.8%
- tolerability of efficacy studies [1]: toxicity upon repeated dosing
- inhibition at 0.2 µM (WEE1; @ 0.2 uM): 1.15%
- inhibition at 2 µM (WEE1; @ 2 uM): 7.31%
- inhibition at 20 µM (WEE1; @ 20 uM): 14.2%
- inhibition at 0.2 µM (ALK; @ 0.2 uM): -16.7%
- inhibition at 2 µM (ALK; @ 2 uM): 7.47%
- inhibition at 20 µM (ALK; @ 20 uM): 31.8%
- inhibition at 0.2 µM (IRAK4; @ 0.2 uM): -4.69%
- inhibition at 2 µM (IRAK4; @ 2 uM): 0.428%
- inhibition at 20 µM (IRAK4; @ 20 uM): -0.827%
- tumor dUMP levels (NCI-H460 xenografts; low folate chow, 4 h, up to 60 mg/kg): unchanged
- dose at which tumor ZMP response appears to saturate (NCI-H460 xenografts; nude mice on low folate chow, 4 h post PO dose): 1 mg/kg
- EC50 (A101D (melenoma)): 2.3 nM
- EC50 (MIA PaCa-2 (pancreas); [2]): 1700 nM
- EC50 (MIA PaCa-2 (pancreas); [3]): 4.2 nM
- EC50 (NCI-H1299): 4.1 nM
- EC50 (SW620 (colon); SW-620, RPMI media, read-out: ZMP EC50 Regular folate): 600 nM
- EC50 (SW620 (colon); SW-620, low folate RPMI media, read-out: ZMP EC50 Low folate): 4.3 ± 0.9 nM
- EC50 (NCI-H1155 (lung); [2]): 380 nM
- EC50 (NCI-H1155 (lung); [3]): 2.3 nM
- EC50 (HCT 116 (colon); [2]): 369 ± 44 nM
- EC50 (HCT 116 (colon); [3]): 2.7 ± 3.3 nM
- EC50 (NCI-H1437 (lung); [2]): 620 ± 354 nM
- EC50 (NCI-H1437 (lung); [3]): 4.6 nM
- EC50 (SNU-16 (gastric); [2]): 2500 nM
- EC50 (SNU-16 (gastric); [3]): 2 nM
- EC50 (A549 (lung); [2]): 3100 nM
- EC50 (A549 (lung); [3]): 10 nM
- EC50 (NCI-H1993 (lung)): 7.1 nM
- inhibition at 0.2 µM (FAK; @ 0.2 uM): -12.7%
- inhibition at 2 µM (FAK; @ 2 uM): -4.84%
- inhibition at 20 µM (FAK; @ 20 uM): 40.1%
